In patent publication US12649750B2, “Macrocyclic compounds, compositions, and methods of using thereof” (Sionna Therapeutics Inc., priority 2022, dated 2026):

What follows are molecules tested against T1, NBD1 (Homo sapiens, UniProt P13569) (assay: Aggregation analysis using differential static light scattering (DSLS), thermal stability of NBD1 (ΔTagg)). Settings: ΔTagg versus DMSO control, NBD1 0.2 mg/ml.
T1 construct: Purified recombinant NBD1 was produced using previously described methods; made in house
T1 sequence (P13569 423-646 limits assumed): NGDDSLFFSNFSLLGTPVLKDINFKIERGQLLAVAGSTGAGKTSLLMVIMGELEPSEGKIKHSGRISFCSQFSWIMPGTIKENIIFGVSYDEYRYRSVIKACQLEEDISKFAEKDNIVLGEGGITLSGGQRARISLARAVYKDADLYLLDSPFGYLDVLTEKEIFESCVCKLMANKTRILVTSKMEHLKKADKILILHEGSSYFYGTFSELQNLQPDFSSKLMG
Assay type: binding
How it was run: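 Purified recombinant NBD1 at 0.2 mg/ml in 50 mM Tris-HCl, 150 mM NaCl, 5 mM MgCl2, 2 mM ATP, 2 mM DTT, pH 7.6, 1% glycerol, with compound, heated 1° C./min to 70° C. under light-scattering monitoring. Tagg taken at curve inflection; ΔTagg is compound Tagg minus mean DMSO-control Tagg, binned A (≤5° C.), B (>5-≤10° C.), C (>10-≤25° C.).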

| SMILES | DSLS 3D (100 μM ΔT) |
| --- | --- |
| CNC1CS(=O)(=O)CC(C)(C)CCC[C@](C)(c2cccc(C[C@@H](C)C(=O)O)c2)c2nc(n(C)n2)-c2cc(ccc2F)Oc2c(F)c(F)c3[nH]ccc3c21 (stereo partly drawn) [Compound 360D, (2R)-2-Methyl-3-[3-[(6R)-21,22,28-trifluoro-3,6,10,10-tetramethyl-14-(methylamino)-12,12-dioxo-24-oxa-12λ6-thia-3,4,19,30-tetrazapentacyclo[23.3.1.12,5.015,23.016,20]triaconta-1(29),2(30),4,15,17,20,22,25,27-nonaen-6-yl]phenyl]propanoic Acid] | A (an ΔTagg value less than or equal to 5 °C is marked “A”) |
| C[C@@H](Cc1cccc([C@@]2(C)CCCC(C)(C)CS(=O)(=O)CC(N)c3c(c(F)cc4[nH]ccc34)Sc3ccc(F)c(c3)-c3nc2nn3C)c1)C(N)=O (single isomer, unassigned) [Compound 370A] | B (a value above 5 °C and less than or equal to 10 °C is marked “B”) |
| COCC(Cc1cccc([C@@]2(C)CCCC(C)(C)CS(=O)(=O)CCc3c(c(F)c(F)c4[nH]ccc34)[S+]([O-])c3ccc(F)c(c3)-c3nc2nn3C)c1)C(=O)O (single isomer, unassigned) [Compound 372] | B (a value above 5 °C and less than or equal to 10 °C is marked “B”) |
| C[C@H](Cc1cccc(C2NCCOCCS(=O)(=O)Cc3c(c(F)c(F)c4[nH]ccc34)Oc3ccc(F)c(c3)-c3nc2nn3C)c1)C(=O)O (single isomer, unassigned) [Compound 381A] | A (an ΔTagg value less than or equal to 5 °C is marked “A”) |
| Cn1nc2nc1-c1cc(ccn1)[S+]([O-])c1c(F)cc3[nH]ccc3c1CCS(=O)(=O)CC(C)(C)CCC[C@]2(C)c1cccc(C[C@H](O)CO)c1 (single isomer, unassigned) [Compound 334] | B (a value above 5 °C and less than or equal to 10 °C is marked “B”) |
| CNC(=O)[C@H](C)Cc1cccc([C@@]2(C)CCCC(C)(C)CS(=O)(=O)CC(NC)c3c(c(F)c(F)c4[nH]ccc34)Oc3ccc(F)c(c3)-c3nc2nn3C)c1 (single isomer, unassigned) [Compound 360C] | A (an ΔTagg value less than or equal to 5 °C is marked “A”) |
| CC(=O)OC[C@@H](Cc1cccc([C@@]2(C)CCCC(C)(C)CS(=O)(=O)CCc3c(c(F)cc4[nH]ccc34)Sc3ccnc(c3)-c3nc2nn3C)c1)OC(C)=O [Compound 336A, [(2R)-2-Acetoxy-3-[3-[(6R)-22-fluoro-3,6,10,10-tetramethyl-12,12-dioxo-12λ6,24-dithia-3,4,19,28,30-pentazapentacyclo[23.3.1.12,5.015,23.016,20]triaconta-1(29),2(30),4,15,17,20,22,25,27-nonaen-6-yl]phenyl]propyl]Acetate] | A (an ΔTagg value less than or equal to 5 °C is marked “A”) |
| Cn1nc2nc1-c1cc(ccn1)S(=O)(=O)c1c(F)cc3[nH]ccc3c1CCS(=O)(=O)CC(C)(C)CCC[C@]2(C)c1cccc(CC(C)(C)C(=O)O)c1 [Compound 350, 3-[3-[(6R)-22-Fluoro-3,6,10,10-tetramethyl-12,12,24,24-tetraoxo-12λ6,24λ6-dithia-3,4,19,28,30-pentazapentacyclo[23.3.1.12,5.015,23.016,20]triaconta-1(29),2(30),4,15,17,20,22,25,27-nonaen-6-yl]phenyl]-2,2-dimethyl-propanoic Acid] | A (an ΔTagg value less than or equal to 5 °C is marked “A”) |
| Cn1nc2nc1-c1cc(ccc1F)Oc1c(F)c(F)c3[nH]ccc3c1CCS(=O)(=O)CC(C)(C)CCC[C@]2(C)c1cccc(CC(C)(C)C(=O)O)c1 [Compound 324, 2,2-Dimethyl-3-[3-[(6R)-21,22,28-trifluoro-3,6,10,10-tetramethyl-12,12-dioxo-24-oxa-12λ6-thia-3,4,19,30-tetrazapentacyclo[23.3.1.12,5.015,23.016,20]triaconta-1(29),2(30),4,15,17,20,22,25,27-nonaen-6-yl]phenyl]propanoic Acid] | B (a value above 5 °C and less than or equal to 10 °C is marked “B”) |
| Cn1nc2nc1-c1cc(ccn1)S(=O)(=O)c1c(F)cc3[nH]ccc3c1CCS(=O)(=O)CC(C)(C)CCC[C@]2(C)c1cccc(C[C@@H](O)CO)c1 [Compound 338, (2R)-3-[3-[(6R)-22-Fluoro-3,6,10,10-tetramethyl-12,12,24,24-tetraoxo-12λ6,24λ6-dithia-3,4,19,28,30-pentazapentacyclo[23.3.1.12,5.015,23.016,20]triaconta-1(29),2(30),4,15,17,20,22,25,27-nonaen-6-yl]phenyl]propane-1,2-diol] | A (an ΔTagg value less than or equal to 5 °C is marked “A”) |
| CC1c2ccnc(c2)-c2nc(nn2C)[C@@](C)(c2cccc(CC(C)(C)C(=O)O)c2)CCCC(C)(C)CS(=O)(=O)CCc2c1c(F)c(F)c1[nH]ccc21 (single isomer, unassigned) [Compound 318B] | A (an ΔTagg value less than or equal to 5 °C is marked “A”) |
| Cn1nc2nc1-c1cc(ccc1F)Sc1c(F)c(F)c3[nH]ccc3c1CCS(=O)(=O)CC(C)(C)CCC[C@]2(C)c1cccc(CC2(C(=O)O)CC2)c1 [Compound 303A, 1-[[3-[(6R)-21,22,28-Trifluoro-3,6,10,10-tetramethyl-12,12-dioxo-12λ6,24-dithia-3,4,19,30-tetrazapentacyclo[23.3.1.12,5.015,23.016,20]triaconta-1(29),2(30),4,15,17,20,22,25,27-nonaen-6-yl]phenyl]methyl]cyclopropanecarboxylic acid] | B (a value above 5 °C and less than or equal to 10 °C is marked “B”) |

The molecules below were run against T2, CFTR (Homo sapiens, UniProt P13569, DEL508-508) (assay: TECC24 AUC fold over DMSO @10 μM, CFTR-mediated transepithelial chloride transport in CF-HBE cells). Settings: test agent AUC divided by DMSO vehicle AUC, primary CF-HBE cells, ΔF508 homozygous donor, 48 hours incubation.
T2 construct: Primary human bronchial epithelial cells from a ΔF508 homozygous CF donor; host or cells: primary human bronchial epithelial cells (CF-HBE), ΔF508 homozygous donor
T2 sequence (P13569 with tags, fused parts or gaps DEL508-508): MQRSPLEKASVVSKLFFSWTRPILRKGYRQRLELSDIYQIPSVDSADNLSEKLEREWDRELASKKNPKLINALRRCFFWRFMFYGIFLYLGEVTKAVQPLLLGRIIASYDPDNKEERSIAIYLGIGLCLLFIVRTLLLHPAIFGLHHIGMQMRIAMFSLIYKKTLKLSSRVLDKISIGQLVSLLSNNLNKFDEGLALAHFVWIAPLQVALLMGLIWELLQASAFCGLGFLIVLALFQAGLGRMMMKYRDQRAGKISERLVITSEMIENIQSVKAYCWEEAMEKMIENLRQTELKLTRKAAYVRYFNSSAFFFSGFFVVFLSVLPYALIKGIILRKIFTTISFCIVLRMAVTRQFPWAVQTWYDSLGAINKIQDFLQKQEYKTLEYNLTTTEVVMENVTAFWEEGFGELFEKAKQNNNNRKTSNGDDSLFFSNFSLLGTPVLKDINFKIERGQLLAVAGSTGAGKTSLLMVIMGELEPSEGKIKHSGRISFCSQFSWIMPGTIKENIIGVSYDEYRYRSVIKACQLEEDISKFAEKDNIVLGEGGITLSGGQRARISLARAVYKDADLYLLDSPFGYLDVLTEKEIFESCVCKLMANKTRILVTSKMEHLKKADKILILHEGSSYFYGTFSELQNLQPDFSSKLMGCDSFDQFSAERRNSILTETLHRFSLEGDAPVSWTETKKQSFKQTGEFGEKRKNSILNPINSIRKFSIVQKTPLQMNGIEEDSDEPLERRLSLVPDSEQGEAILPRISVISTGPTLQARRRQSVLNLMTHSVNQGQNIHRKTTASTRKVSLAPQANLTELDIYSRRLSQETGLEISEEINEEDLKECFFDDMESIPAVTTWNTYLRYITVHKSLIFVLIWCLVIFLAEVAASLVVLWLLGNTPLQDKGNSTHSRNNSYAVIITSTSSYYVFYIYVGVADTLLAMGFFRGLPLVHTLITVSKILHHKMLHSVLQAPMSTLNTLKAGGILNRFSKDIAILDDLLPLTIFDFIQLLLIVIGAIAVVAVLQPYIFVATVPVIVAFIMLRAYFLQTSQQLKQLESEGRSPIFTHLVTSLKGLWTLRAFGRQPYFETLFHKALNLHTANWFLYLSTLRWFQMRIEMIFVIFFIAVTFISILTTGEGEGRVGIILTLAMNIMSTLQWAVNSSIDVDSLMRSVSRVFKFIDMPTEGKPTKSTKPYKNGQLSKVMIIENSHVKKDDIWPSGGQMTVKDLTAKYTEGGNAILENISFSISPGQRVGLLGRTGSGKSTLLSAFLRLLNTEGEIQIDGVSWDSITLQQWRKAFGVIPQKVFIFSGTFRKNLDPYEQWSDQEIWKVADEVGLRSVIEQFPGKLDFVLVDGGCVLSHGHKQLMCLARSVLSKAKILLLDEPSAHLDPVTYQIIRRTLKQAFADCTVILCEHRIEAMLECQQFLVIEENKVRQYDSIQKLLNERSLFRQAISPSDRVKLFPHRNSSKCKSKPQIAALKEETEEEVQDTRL
Assay type: cell-based
Procedure: Example 387. TECC24 AUC Fold Over DMSO @10 μM
The effects of a test agent on CFTR-mediated transepithelial chloride transport is measured using TECC24 recording analysis. Test agents are solubilized in DMSO. Solubilized test agents are mixed with incubation medium containing DMEM/F12, Ultroser G (2%; Crescent Chemical, catalog #67042), Hyclone Fetal Clone II (2%; GE Healthcare, catalog #SH30066.02), bovine brain extract (0.25%; Lonza, catalog #CC-4098), insulin (2.5 μg/mL), IL-13 (10 ng/mL), hydrocortisone (20 nM), transferrin (2.5 μg/mL), triiodothyronine (500 nM), ethanolamine (250 nM), epinephrine (1.5 μM), phosphoethanolamine (250 nM), and retinoic acid (10 nM). Primary human bronchial epithelial cells from a ΔF508 homozygous CF donor (CF-HBE cells; from University of North Carolina Cystic Fibrosis Tissue Procurement Center), grown on Transwell HTS 24-well cell culture inserts (Costar, catalog #3378), are exposed to test agents or controls dissolved in incubation medium. The CF-HBE cells are cultured at 36.5° C. for 48 hours before TECC24 recordings are performed in the presence or absence of test agent, a positive control or vehicle (DMSO).
Following incubation, the transwell cell culture inserts containing the test agent or control-treated CF-HBE cells are loaded onto a TECC24 apparatus (TECC v7 or MTECC v2; EP Design) to record the transepithelial voltage (VT) and resistance (TEER) using 4 AgCl electrodes per well configured in current-clamp mode. The apical and basolateral bath solutions both contain (in mM) 140 NaCl, 5 KCl, 2 CaCl2, 1 MgCl2, 10 Hepes, and 10 glucose (adjusted to pH 7.4 with NaOH). To inhibit basal Na+ absorption, the ENaC inhibitor benzamil (10 μM) is added to the bath. Then, the adenylate cyclase activator, forskolin (10 μM), is added to the bath to activate CFTR. The forskolin-stimulated Cl— transport is halted by addition of CFTR inhibitor-172 (20 μM) to the bath at the end of the experiment to confirm specificity. VT and TEER recordings are digitally acquired at routine intervals using TECC or MTECC software (EP Design). VT and TEER are transformed into equivalent transepithelial Cl— current (IEQ), and the Area Under the Curve (AUC) of the IEQ time course between forskolin and CFTR inhibitor-172 addition is generated using Excel (Microsoft). Efficacy is expressed as the ratio of the test agent AUC divided by vehicle AUC. EC50s based on AUC are generated using the non-linear regression log(agonist) vs. response function in Prism software (Graphpad) with HillSlope fixed=1.
If a test agent increases the AUC of the forskolin-stimulated IEQ relative to vehicle in CF-HBE cells, and this increase is inhibited by CFTR inhibitor-172, then the test agent is considered a CFTR corrector. TECC assay efficacy is expressed as the ratio of the test agent AUC divided by DMSO vehicle AUC. As set forth in Table 2 below, a TECC value less than 12 is marked “A”; a value between 12-20 is marked “B”; a value between 20 and 80 is marked “C”. […]

| SMILES | TECC (AUC, 10 μM) |
| --- | --- |
| Cn1nc2nc1-c1cc(ccc1F)[S+]([O-])c1c(F)cc3[nH]ccc3c1CCS(=O)(=O)CC(C)(C)CCCC2(C)c1cccc(/C=C/C(=O)O)c1 (single isomer, unassigned) [Compound 210B, (E)-3-[3-(22,28-difluoro-3,6,10,10-tetramethyl-12,12,24-trioxo-12λ6,24λ4-dithia-3,4,19,30-tetrazapentacyclo[23.3.1.12,5.015,23.016,20]triaconta-1(29),2(30),4,15,17,20,22,25,27-nonaen-6-yl)phenyl]prop-2-enoic Acid] | A (a TECC value less than 12 is marked “A”) |
| Cn1nc2nc1-c1cc(ccc1F)[S+]([O-])c1c(F)cc3[nH]ccc3c1CCS(=O)(=O)CC(C)(C)CCCC2(C)c1cccc(/C=C/C(=O)O)c1 (single isomer, unassigned) [Compound 210A, (E)-3-[3-(22,28-difluoro-3,6,10,10-tetramethyl-12,12,24-trioxo-12λ6,24λ4-dithia-3,4,19,30-tetrazapentacyclo[23.3.1.12,5.015,23.016,20]triaconta-1(29),2(30),4,15,17,20,22,25,27-nonaen-6-yl)phenyl]prop-2-enoic Acid] | C (a value between 20 and 80 is marked “C”) |
| Cn1nc2nc1-c1cc(ccc1F)[S+]([O-])c1c(F)cc3[nH]ccc3c1CCS(=O)(=O)CC(C)(C)CCCC2(C)c1cccc(/C=C/C(=O)O)c1 (single isomer, unassigned) [Compound 210C, (E)-3-[3-(22,28-difluoro-3,6,10,10-tetramethyl-12,12,24-trioxo-12λ6,24λ4-dithia-3,4,19,30-tetrazapentacyclo[23.3.1.12,5.015,23.016,20]triaconta-1(29),2(30),4,15,17,20,22,25,27-nonaen-6-yl)phenyl]prop-2-enoic Acid] | B (a value between 12-20 is marked “B”) |
